Measured values taken from patent US9388179B2, “N-substituted indazole sulfonamide compounds with selective activity in voltage-gated sodium channels” (Merck Sharp & Dohme Corp., priority 2012, dated 2016).

Experiments:
Assay type in all cases: cell-based
[1] = biological target: T1, Nav 1.7 (Homo sapiens, UniProt Q15858); assay: Comparative examples, Nav 1.7 activity (Patch Express or Ion Works, technique not given); details: Table IX, read-out: Activity: Nav 1.7 potency
T1 construct: expressed in transfected cells; host or cells: HEK 293
Procedure: (§1) Potency of the example compounds was assayed using Patch Express or Ion Works techniques, as reported herein. The results are reported below following each example number as follows: Ex-(no.) Nav 1.7 potency (nM) [ratio 1.5:1.7=Nav 1.5 potency (nM)/Nav1.7 potency (nM)].

[2] = biological target: T2, Nav 1.5 (Homo sapiens, UniProt Q14524); assay: Comparative examples, Nav 1.5 activity (Patch Express or Ion Works, technique not given); details: Table IX
T2 construct: expressed in transfected cells; host or cells: HEK 293
Procedure: as §1

[3] = biological target: T3, human Nav1.5 channels stably expressed in HEK 293 cells (Homo sapiens, UniProt Q14524); assay: IonWorks Quattro automated patch-clamp, inactivated state block; details: IonWorks technique
T3 construct: expressed in transfected cells; host or cells: HEK 293
Procedure: (§2) For all electrophysiology experiments, offline analysis was used to correct for current rundown and to determine percent inhibition as a function of drug concentration. IC50 values were determined by fitting to the Hill equation.
(§3) Cell Based Assays for Nav 1.7 and Nav 1.5 Activity
(§4) Compounds were tested on human Nav1.7 and Nav1.5 channels stably expressed in HEK 293 cells. […] Cells were sealed on a planar substrate using the Population Patch […] (PPC) technology. Electrical access was obtained using both nystatin and amphotericin. A double-pulse protocol was used for the determination of IC50 values for inactivated state block. Nav1.7 and Nav1.5 expressing cells were voltage clamped at −100 mV and −110 mV, respectively. A depolarizing prepulse to −10 mV (Nav1.7) or −30 mV (Nav1.5) for 1000 ms followed by a 10 ms repolarization to −100 mV (Nav1.7) or −110 mV (Nav1.5) was given to generate fractional channel inactivation of 50%, followed by a 10 ms test pulse to −10 mV (Nav1.7) or −30 mV (Nav1.5) to measure peak current in control conditions and after compound addition. The following recording solutions were used (mM). External: 150 NaCl, 2 CaCl2, 5 KCl, 1 MgCl2, 10 HEPES, 12 Dextrose; internal: 120 CsF, 30 CsCl, 10 EGTA, 5 HEPES, 5 NaF, 2 MgCl2.

[4] = biological target: T4, human Nav1.7 channels stably expressed in HEK 293 cells (Homo sapiens, UniProt Q15858); assay: as above; details: IonWorks technique; read-out: Nav 1.7 potency
T4 construct: expressed in transfected cells; host or cells: HEK 293
Procedure: as §2, §3, §4

[5] = biological target: T3, human Nav1.5 channels stably expressed in HEK 293 cells; assay: PatchXpress 7000 automated patch-clamp, inactivated state block; details: PatchXpress technique
Procedure: as §2
(§5) Sodium Current Measurements on the PatchXpress 7000®:
(§6) To measure inactivated state block of sodium channels, test compounds were characterized in an automated PatchXpress® assay (Molecular Devices) using a double-pulse protocol on human Nav1.7 and Nav1.5 channels stably expressed in HEK 293 cells. Cells were held at a potential 20 mV negative to V0.5 inact. An 8000 ms pre-pulse 7 mV positive to V0.5 inact was given followed by a hyperpolarizing 2 ms pulse to −120 mV and a 20 ms test pulse to −20 mV. Protocol was applied to cells in the absence, presence of compound and after washout. The temperature of PatchXpress instruments was maintained at 22° C. The following recording solutions were used. Internal solution (mM): 30 CsCl, 5 HEPES, 10 EGTA, 120 CsF, 5 NaF, 2 MgCl2. External solution (mM): 120 NMDG, 40 NaCl, 1 KCl, 0.5 MgCl2, 5 HEPES, 2.7 CaCl2.

[6] = biological target: T4, human Nav1.7 channels stably expressed in HEK 293 cells; assay: as above; details: PatchXpress technique; read-out: Nav 1.7 potency
Procedure: as §2, §5, §6

T4 sequence (Q15858 whole entry): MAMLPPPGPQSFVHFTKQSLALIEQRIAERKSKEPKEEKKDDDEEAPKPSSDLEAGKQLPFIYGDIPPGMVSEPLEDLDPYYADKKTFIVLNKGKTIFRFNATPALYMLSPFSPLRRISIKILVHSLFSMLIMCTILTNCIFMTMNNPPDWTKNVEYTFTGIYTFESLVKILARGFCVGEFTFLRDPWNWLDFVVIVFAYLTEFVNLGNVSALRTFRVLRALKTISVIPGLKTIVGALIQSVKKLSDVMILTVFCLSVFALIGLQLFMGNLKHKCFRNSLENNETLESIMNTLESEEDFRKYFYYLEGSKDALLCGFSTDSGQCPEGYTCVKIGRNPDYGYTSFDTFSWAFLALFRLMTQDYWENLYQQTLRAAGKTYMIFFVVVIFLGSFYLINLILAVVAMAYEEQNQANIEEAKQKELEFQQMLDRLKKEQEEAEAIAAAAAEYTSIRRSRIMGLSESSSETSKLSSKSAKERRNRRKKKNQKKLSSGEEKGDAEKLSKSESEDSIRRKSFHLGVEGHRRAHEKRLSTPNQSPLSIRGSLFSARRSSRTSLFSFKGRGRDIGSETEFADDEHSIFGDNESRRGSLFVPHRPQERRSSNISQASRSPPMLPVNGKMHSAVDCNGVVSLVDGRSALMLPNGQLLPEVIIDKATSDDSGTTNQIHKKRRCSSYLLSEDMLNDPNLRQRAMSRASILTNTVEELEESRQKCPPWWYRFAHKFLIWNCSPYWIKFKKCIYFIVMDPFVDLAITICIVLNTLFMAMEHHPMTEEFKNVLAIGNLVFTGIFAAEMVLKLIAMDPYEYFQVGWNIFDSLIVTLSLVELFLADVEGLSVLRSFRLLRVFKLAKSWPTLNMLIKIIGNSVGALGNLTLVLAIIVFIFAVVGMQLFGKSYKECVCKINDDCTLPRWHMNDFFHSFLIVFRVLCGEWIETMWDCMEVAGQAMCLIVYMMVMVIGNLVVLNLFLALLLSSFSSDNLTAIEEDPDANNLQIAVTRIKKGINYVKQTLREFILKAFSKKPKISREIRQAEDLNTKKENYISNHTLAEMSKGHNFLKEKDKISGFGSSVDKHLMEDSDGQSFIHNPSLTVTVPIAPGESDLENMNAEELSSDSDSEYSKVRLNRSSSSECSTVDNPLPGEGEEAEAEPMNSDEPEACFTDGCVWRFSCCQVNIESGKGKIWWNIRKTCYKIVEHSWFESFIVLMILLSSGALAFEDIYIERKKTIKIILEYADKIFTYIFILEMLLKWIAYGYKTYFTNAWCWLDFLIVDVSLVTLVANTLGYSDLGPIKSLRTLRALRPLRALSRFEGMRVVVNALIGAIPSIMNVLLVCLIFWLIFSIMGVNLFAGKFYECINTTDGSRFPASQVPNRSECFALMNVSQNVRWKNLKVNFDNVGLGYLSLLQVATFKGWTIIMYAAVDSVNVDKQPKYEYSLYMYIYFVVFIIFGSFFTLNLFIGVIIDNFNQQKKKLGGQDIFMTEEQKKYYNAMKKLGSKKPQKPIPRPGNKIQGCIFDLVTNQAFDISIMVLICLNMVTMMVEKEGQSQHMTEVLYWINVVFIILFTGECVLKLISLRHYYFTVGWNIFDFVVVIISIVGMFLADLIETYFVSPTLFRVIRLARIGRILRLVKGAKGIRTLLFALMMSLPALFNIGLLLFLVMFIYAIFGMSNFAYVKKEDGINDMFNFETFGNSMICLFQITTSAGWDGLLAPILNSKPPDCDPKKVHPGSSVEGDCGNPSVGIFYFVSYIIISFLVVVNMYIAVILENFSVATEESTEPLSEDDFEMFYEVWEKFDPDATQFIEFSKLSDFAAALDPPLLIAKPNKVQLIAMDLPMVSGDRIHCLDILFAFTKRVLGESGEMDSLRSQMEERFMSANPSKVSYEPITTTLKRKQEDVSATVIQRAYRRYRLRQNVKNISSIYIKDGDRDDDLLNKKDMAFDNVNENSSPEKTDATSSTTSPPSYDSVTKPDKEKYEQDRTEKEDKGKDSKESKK
T1 sequence (Q15858 whole entry): as above
T3 sequence (Q14524 whole entry): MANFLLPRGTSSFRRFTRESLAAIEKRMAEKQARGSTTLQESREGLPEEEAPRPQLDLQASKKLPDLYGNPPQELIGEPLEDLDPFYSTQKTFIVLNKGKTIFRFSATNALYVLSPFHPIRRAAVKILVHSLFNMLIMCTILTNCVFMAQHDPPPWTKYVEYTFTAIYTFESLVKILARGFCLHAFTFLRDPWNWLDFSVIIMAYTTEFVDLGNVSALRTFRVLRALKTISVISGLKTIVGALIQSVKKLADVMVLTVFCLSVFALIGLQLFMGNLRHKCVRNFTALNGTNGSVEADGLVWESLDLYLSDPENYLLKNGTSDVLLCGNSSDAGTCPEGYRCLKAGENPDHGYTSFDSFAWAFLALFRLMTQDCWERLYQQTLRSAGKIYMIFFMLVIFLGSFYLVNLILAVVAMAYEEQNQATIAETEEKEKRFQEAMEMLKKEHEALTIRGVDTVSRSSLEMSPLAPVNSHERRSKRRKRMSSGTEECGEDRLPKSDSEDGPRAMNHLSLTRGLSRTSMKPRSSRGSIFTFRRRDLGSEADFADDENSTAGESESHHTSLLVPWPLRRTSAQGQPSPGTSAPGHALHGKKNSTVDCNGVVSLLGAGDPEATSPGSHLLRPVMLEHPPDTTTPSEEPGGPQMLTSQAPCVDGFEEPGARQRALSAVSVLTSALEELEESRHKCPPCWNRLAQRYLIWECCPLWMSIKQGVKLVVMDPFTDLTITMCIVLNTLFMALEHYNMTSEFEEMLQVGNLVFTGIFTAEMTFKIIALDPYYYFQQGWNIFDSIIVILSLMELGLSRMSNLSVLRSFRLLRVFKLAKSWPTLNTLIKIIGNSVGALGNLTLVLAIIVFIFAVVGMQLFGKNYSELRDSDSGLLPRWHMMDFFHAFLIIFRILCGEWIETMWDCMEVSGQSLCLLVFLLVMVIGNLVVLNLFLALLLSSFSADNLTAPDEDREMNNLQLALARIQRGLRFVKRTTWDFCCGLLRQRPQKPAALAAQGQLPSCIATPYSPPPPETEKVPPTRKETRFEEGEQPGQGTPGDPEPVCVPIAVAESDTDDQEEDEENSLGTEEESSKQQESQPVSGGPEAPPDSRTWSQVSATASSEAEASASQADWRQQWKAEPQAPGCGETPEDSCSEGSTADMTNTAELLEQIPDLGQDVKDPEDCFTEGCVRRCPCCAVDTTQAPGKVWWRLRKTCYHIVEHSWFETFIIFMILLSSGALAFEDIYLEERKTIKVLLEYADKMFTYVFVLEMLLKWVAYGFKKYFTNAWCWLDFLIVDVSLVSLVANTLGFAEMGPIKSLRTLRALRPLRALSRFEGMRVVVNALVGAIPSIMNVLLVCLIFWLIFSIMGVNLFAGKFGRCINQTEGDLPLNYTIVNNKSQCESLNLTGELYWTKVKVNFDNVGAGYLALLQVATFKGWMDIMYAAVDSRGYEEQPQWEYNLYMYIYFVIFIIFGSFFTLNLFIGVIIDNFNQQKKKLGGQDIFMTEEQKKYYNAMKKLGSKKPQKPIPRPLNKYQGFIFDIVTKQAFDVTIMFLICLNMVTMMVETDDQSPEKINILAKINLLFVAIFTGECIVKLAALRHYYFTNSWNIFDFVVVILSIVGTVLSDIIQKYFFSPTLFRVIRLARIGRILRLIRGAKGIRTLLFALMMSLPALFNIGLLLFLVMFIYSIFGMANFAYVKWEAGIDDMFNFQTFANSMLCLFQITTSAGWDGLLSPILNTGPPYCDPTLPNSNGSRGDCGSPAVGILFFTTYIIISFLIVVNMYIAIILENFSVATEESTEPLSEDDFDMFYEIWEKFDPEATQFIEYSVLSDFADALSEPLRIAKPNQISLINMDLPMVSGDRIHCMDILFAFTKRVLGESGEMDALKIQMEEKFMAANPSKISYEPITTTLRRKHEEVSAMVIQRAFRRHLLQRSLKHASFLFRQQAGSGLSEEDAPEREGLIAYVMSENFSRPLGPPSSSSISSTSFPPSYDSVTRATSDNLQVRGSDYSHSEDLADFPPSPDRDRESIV

IC50 [1] [nM] | IC50 [4] [nM] | IC50 [6] [nM] | Compound | Activity: Ratio 1.5:1.7 [2] | Ratio 1.5:1.7 = Nav 1.5 potency (nM)/Nav1.7 potency (nM) [3] | Ratio 1.5:1.7 = Nav 1.5 potency (nM)/Nav1.7 potency (nM) [5]
33000 | – | – | O=S(=O)(Nc1nccs1)c1ccc2nn(Cc3ccc(OC(C(F)(F)F)(C(F)(F)F)C(F)(F)F)cc3)cc2c1 [CE-03, 2-(4-(1,1,1,3,3,3-hexafluoro-2-(trifluoro-methyl)propan-2-yloxy)benzyl)-N-(thiazol-2-yl)-2H-indazole-5-sulfonamide] | 1 | – | –
27000 | – | – | Nc1cc(-c2cc(Cl)ccc2Cn2ncc3cc(S(=O)(=O)Nc4ncns4)ccc32)ccn1 [CE-01, 1-(2-(2-aminopyridin-4-yl)-4-chlorobenzyl)-N-(1,2,4-thiadiazol-5-yl)-1H-indazole-5-sulfonamide] | 1 | – | –
33000 | – | – | O=S(=O)(Nc1nccs1)c1ccc2c(cnn2Cc2ccc(OC(C(F)(F)F)(C(F)(F)F)C(F)(F)F)cc2)c1 [CE-02, 1-(4-(1,1,1,3,3,3-hexafluoro-2-(trifluoro-methyl)propan-2-yloxy)benzyl)-N-(thiazol-2-yl)-1H-indazole-5-sulfonamide] | 1 | – | –

The remaining lines, values behind:

Compound | IC50 [1] [nM] | IC50 [4] [nM] | IC50 [6] [nM] | Activity: Ratio 1.5:1.7 [2] | Ratio 1.5:1.7 = Nav 1.5 potency (nM)/Nav1.7 potency (nM) [3] | Ratio 1.5:1.7 = Nav 1.5 potency (nM)/Nav1.7 potency (nM) [5]
NC/C=C/c1ccccc1Cn1ncc2cc(S(=O)(=O)Nc3ncns3)c(F)cc21 [Ex-5, (E)-1-(2-(3-aminoprop-1-en-1-yl)benzyl)-6-fluoro-N-(1,2,4-thiadiazol-5-yl)-1H-indazole-5-sulfonamide] | – | 34 | 54 | – | 963 | 560
NC/C=C/c1ccccc1Cn1ncc2cc(S(=O)(=O)Nc3ncns3)ccc21 [Ex-15, 1-{2-[(1E)-3-aminoprop-1-en-1-yl]benzyl}-N-1,2,4-thiadiazol-5-yl-1H-indazole-5-sulfonamide] | – | 159 | 127 | – | 207 | 237
C[C@@H](c1ccccc1)n1ncc2cc(S(=O)(=O)Nc3ncns3)c(F)cc21 [Ex-11, 6-fluoro-1-[(1S)-1-phenylethyl]-N-1,2,4-thiadiazol-5-yl-1H-indazole-5-sulfonamide] | – | 1480 | 343 | – | 11 | 32
O=S(=O)(Nc1nccs1)c1cc2cnn(Cc3cccc4c3CNCC4)c2cc1F [Ex-2, 6-fluoro-1-((1,2,3,4-tetrahydroisoquinolin-8-yl)methyl)-N-(thiazol-2-yl)-1H-indazole-5-sulfonamide] | – | 25 | 20 | – | 1200 | 2025
O=S(=O)(Nc1ncc(Cl)s1)c1cc2cnn(Cc3cccc4c3CNCC4)c2cc1F [Ex-3, N-(5-chlorothiazol-2-yl)-6-fluoro-1-((1,2,3,4-tetrahydroisoquinolin-8-yl)methyl)-1H-indazole-5-sulfonamide] | – | 328 | 52 | – | 91 | 636
NC/C=C/c1cc(Cl)ccc1Cn1ncc2cc(S(=O)(=O)Nc3ncns3)ccc21 [Ex-16, 1-{2-[(1E)-3-aminoprop-1-en-1-yl]-4-chlorobenzyl}-N-1,2,4-thiadiazol-5-yl-1H-indazole-5-sulfonamide] | – | 413 | 939 | – | 81 | 32
O=S(=O)(Nc1ncns1)c1cc2cnn(Cc3cccc4c3CNCC4)c2cc1F [Ex-1, 6-fluoro-1-((1,2,3,4-tetrahydroisoquinolin-8-yl)methyl)-N-(1,2,4-thiadiazol-5-yl)-1H-indazole-5-sulfonamide] | – | 106 | 153 | – | 311 | 310
O=S(=O)(Nc1ncns1)c1ccc2c(cnn2Cc2ccccc2-c2cccc3c2CCNC3)c1 [Ex-22, 1-[2-(1,2,3,4-tetrahydroisoquinolin-5-yl)benzyl]-N-1,2,4-thiadiazol-5-yl-1H-indazole-5-sulfonamide] | – | 1460 | 2900 | – | 23 | > 10
CN(C)CCNC(=O)c1cccc(-c2ccccc2Cn2ncc3cc(S(=O)(=O)Nc4ncns4)c(F)cc32)c1 [Ex-8, N-[2-(dimethylamino)ethyl]-2′-{[6-fluoro-5-(1,2,4-thiadiazol-5-ylsulfamoyl)-1H-indazol-1-yl]methyl}biphenyl-3-carboxamide] | – | 856 | 1130 | – | 39 | 27
